Data: patent US20250326720A1, “CAREBASTINE SALT AND USE OF SAME” (priority 2022, published 2025)
≈ marks a conversion by molar mass, not a printed value. Counter-ions that a name gives are not always drawn. Like-named read-outs stand apart in the source and are kept apart here. Marks after values point to notes of the source that are not given here.

Columns and labels:
Hygroscopicity study = format: physicochemical; details: 25° C.±1° C., relative humidity 80%, 24 hours
Procedure: The preparation of carebastine hydrochloride refers to the description of patent U.S. Pat. No. 6,340,761, and the purity is 99% or more. […] (2) An appropriate amount of the sample was spread flat in the weighing bottle. […] (3) The weighing bottle was opened and placed with the lid under the above constant temperature and humidity conditions for 24 hours. (4) The lid was put on the weighing bottle and the weight was accurately weighed (m3).

[1] = Solubility test in different media; format: physicochemical
Procedure: Carebastine (Comparative Example 2) and carebastine p-toluenesulfonate (Example 3).
Hydrochloric acid solution with a pH of 1.2:7.65 ml of hydrochloric acid was diluted to 1000 ml with water, and shaken evenly to obtain the solution.
Phosphate buffer with a pH of 4.5:3.40278 g of KH2PO4 was weighed, dissolved in water and diluted to 500 ml, and shaken evenly to obtain the solution.
Phosphate buffer with a pH of 6.8:3.40353 g of KH2PO4 and 0.4428 g of sodium hydroxide were weighed, dissolved in water and diluted to 500 ml, and shaken evenly to obtain the solution.
Appropriate amounts of the compounds of Example 3 and Comparative Example 2 were respectively placed in conical flasks containing 50 ml of water, 50 ml of a hydrochloric acid solution with a pH of 1.2, 50 ml of a phosphate buffer with a pH of 4.5, and 50 ml of a phosphate buffer with a pH of 6.8, respectively, so that the solutions were supersaturated and insoluble matter was clearly visible.
The conical flasks were placed in a thermostatic water bath at 37° C. and an oscillation rate of 120 r/min. Samples were taken at 24 h, 48 h, and 72 h, and detected by liquid chromatography.

KM mice = details: for Mortality rate of mice / Number of surviving mice / abnormalities during observation period and in gross anatomical observation: single intragastric; for Mortality rate of mice / Number of surviving mice: 14 days observation; for Number of surviving mice: 10 mice per group; for abnormalities during observation period and in gross anatomical observation: low dose, mice
Procedure: All drugs were administered by intragastric administration, and the blank control group was administered with an equal volume of 0.5% CMC-Na solution. All animals were fasted for 12 hours before administration, but were allowed to drink water freely.
After administration, the mice were kept and observed for 14 days, and the toxic reactions (such as death) of the mice were observed and recorded every day. After the observation period, all surviving animals were dissected to observe whether there were obvious lesions in each organ.

[2] = format: in vivo; details: SD rats
Procedure: Twenty-four SD rats weighing about 180 g to 200 g were randomly divided into 4 groups, with 6 rats in each group, half of which were male and half were female. The rats were given the corresponding drugs by intragastric administration.
The rats were fasted for 12 hours before administration, but were allowed to drink water freely.
Preparation of test substances: The preparation of test substances was carried out on the workbench in the related art in the preparation room.
Blank blood was collected before administration, and blood was collected at predetermined time points of 0.25 h, 0.5 h, 0.75 h, 1 h, 2 h, 3 h, 4 h, 6 h, 8 h, 10 h, and 24 h after administration. About 0.5 mL of blood was collected and placed in an EDTA-K2 tube, and the plasma was separated by centrifugation and stored at −80° C. The prototype and the metabolite, namely, carebastine, in a plasma sample were detected and analyzed by liquid chromatography-mass spectrometry (LC-MS/MS), and pharmacokinetic parameters were calculated.

[3] = test system: histamine-induced shock in guinea pigs; test: Histamine-induced shock test in guinea pigs; format: in vivo; details: gavage, equimolar to 1.00 mg/kg ebastine, histamine phosphate i.v. one hour after administration, n = 10; for Time of accelerated respiration: x ± s
Procedure: One hour after administration, 0.125 wt. % histamine phosphate saline solution was injected intravenously into lateral sides of hind paws of the guinea pigs at 2 ml/kg. After the injection was completed within 10 s, a stopwatch was used immediately to observe the latency period for the guinea pigs to develop accelerated respiration and collapse with convulsions.

[4] = Stability study (influencing factors, HPLC purity); format: physicochemical; details: for Purity Day 12 under high temperature / Purity Day 12 under light / Purity Day 0 / Purity Day 12 under high humidity: HPLC; for Purity Day 12 under high temperature: 60° C.; for Purity Day 12 under light / stability under light: 5000Lux; for Purity Day 12 under high humidity: RH80%
Source text: Carebastine (Comparative Example 2, Comparative Example 2′), carebastine potassium salt (Example 1), and carebastine p-toluenesulfonate (Example 3, Example 5).
Three samples of each of carebastine (Comparative Example 2), refined carebastine (Comparative Example 2′), carebastine potassium salt (Example 1), carebastine p-toluenesulfonate (Example 3), and carebastine p-toluenesulfonate (Example 5) were weighed and placed in weighing flasks. The samples of each group were placed under high temperature (60° C.), high humidity (RH80%), and light (5000Lux) conditions, and the samples were taken for testing after 12 days. Note: The refined carebastine of Comparative Example 2′ can be prepared by column chromatography of Comparative Example 2 using common technical means in the related art.
Detection method: An appropriate amount of each of the samples was weighed accurately, and is dissolved in acetonitrile and quantitatively diluted to a solution containing about 0.08 mg per 1 ml. The detection was carried out using high performance liquid chromatography, octadecylsilane bonded silica gel as a filler, and water-acetonitrile (1:1) as a mobile phase, under a detection wavelength of 256 nm, column temperature of 35° C., and injection volume of 10 μL. Each sample solution was injected into the liquid chromatograph and the chromatogram was recorded.

[5] = high dose (equimolar to 5 g/kg ebastine)
[6] = low dose (equimolar to 2.5 g/kg ebastine)

| SMILES | Mortality rate [3] | Time of convulsion and collapse [3] | Purity Day 12 under high temperature ([4]; 12 days) | Purity Day 12 under light ([4]; 12 days) | Purity Day 0 [4] | Purity Day 12 under high humidity ([4]; 12 days) | Characteristic description (hygroscopicity) (Hygroscopicity study) | Weight gain Percentage (Hygroscopicity study) | Time of accelerated respiration [3] | other results |
| --- | --- | --- | --- | --- | --- | --- | --- | --- | --- | --- |
| CC(C)(C(=O)O)c1ccc(C(=O)CCCN2CCC(OC(c3ccccc3)c3ccccc3)CC2)cc1 [Comparative Example 3, carebastine hydrochloride] |  |  |  |  |  |  |  |  |  | Characteristic description (hygroscopicity) (Hygroscopicity study; hydrochloride): Extremely hygroscopic; Weight gain Percentage (Hygroscopicity study; hydrochloride): 15.9%; solubility [1]: 80 µg/mL; solubility ([1]; pH 6.8): 10 µg/mL |
| CC(C)(C)c1ccc(C(=O)CCCN2CCC(OC(c3ccccc3)c3ccccc3)CC2)cc1 [Comparative Example 1, ebastine] | 0/10 | 349* s |  |  |  |  |  |  |  | MDT (KM mice; both, KM, mouse, in vivo, 14 days): > 2500 mg/kg; gender differences (AUC and Cmax, female vs male rats) ([2]; three female vs three male per group): showed gender differences; content of the prototype ([2]; prototype (ebastine) in plasma, single intragastric 10 mg/kg): lower than 3 ng/mL |
| CC(C)(C(=O)O)c1ccc(C(=O)CCCN2CCC(OC(c3ccccc3)c3ccccc3)CC2)cc1 [Comparative Example 2′, carebastine] |  |  | 99.45% | 88.11% | 99.65% | 99.25% |  |  |  |  |
| CC(C)(C(=O)O)c1ccc(C(=O)CCCN2CCC(OC(c3ccccc3)c3ccccc3)CC2)cc1.Cc1ccc(S(=O)(=O)O)cc1 [Example 3, 2-(4-(4-(4-(diphenylmethoxy)piperidin-1-yl)butyryl)phenyl)-2-methylpropanoic acid p-toluenesulfonate] | 0/10 | >600*^▴ s |  |  |  |  | Slightly hygroscopic | 0.3% | 351 ± 38.16 s | Mortality rate of mice (KM mice; [5]): 10%; Number of surviving mice (KM mice; [5]): 9; Mortality rate of mice (KM mice; [6]): 0; Number of surviving mice (KM mice; [6]): 10; abnormalities during observation period and in gross anatomical observation (KM mice; 14 days): no obvious abnormalities were observed; stability under high temperature, high humidity and light conditions ([4]; 12 days): stable; Purity Day 12 under high temperature ([4]; 12 days, p-toluenesulfonate): 99.94%; Purity Day 12 under light ([4]; 12 days, p-toluenesulfonate): 99.91%; Purity Day 0 ([4]; p-toluenesulfonate): 99.99%; Purity Day 12 under high humidity ([4]; 12 days, p-toluenesulfonate): 99.98% |
| CC(C)(C(=O)[O-])c1ccc(C(=O)CCCN2CCC(OC(c3ccccc3)c3ccccc3)CC2)cc1.[K+] [Example 1, potassium 2-(4-(4-(4-(diphenylmethoxy)piperidin-1-yl)butyryl)phenyl)-2-methylpropanoate] | 0/10 | >600*^▴ s | 98.23% | 97.48% | 98.42% | 98.38% | No or almost no hygroscopicity | −0.2% | 294 ± 24.42 s | Mortality rate of mice (KM mice; [5]): 20%; Number of surviving mice (KM mice; [5]): 8; Mortality rate of mice (KM mice; [6]): 0; Number of surviving mice (KM mice; [6]): 10; abnormalities during observation period and in gross anatomical observation (KM mice; 14 days): no obvious abnormalities were observed; stability under light ([4]; 12 days): slightly reduced |
| CC(C)(C(=O)O)c1ccc(C(=O)CCCN2CCC(OC(c3ccccc3)c3ccccc3)CC2)cc1 [Comparative Example 2, 2-(4-(4-(4-(diphenylmethoxy)piperidin-1-yl)butyryl)phenyl)-2-methylpropanoic acid] |  |  | 97.22% | 87.28% | 97.78% | 97.41% | Hygroscopic | 6% |  | stability under light ([4]; 12 days): extremely unstable; solubility ([1]; Hydrochloric acid solution with a pH of 1.2, 37° C., 24 h): 460 µg/mL (≈ 921 µM); solubility ([1]; Hydrochloric acid solution with a pH of 1.2, 37° C., 48 h): 540 µg/mL (≈ 1080 µM); solubility ([1]; Hydrochloric acid solution with a pH of 1.2, 37° C., 72 h): 390 µg/mL (≈ 781 µM); solubility ([1]; Phosphate buffer with a pH of 4.5, 37° C., 24 h): 200 µg/mL (≈ 400 µM); solubility ([1]; Phosphate buffer with a pH of 4.5, 37° C., 48 h): 190 µg/mL (≈ 380 µM); solubility ([1]; Phosphate buffer with a pH of 4.5, 37° C., 72 h): 200 µg/mL (≈ 400 µM); solubility ([1]; Phosphate buffer with a pH of 6.8, 37° C., 24 h): 30 µg/mL (≈ 60 µM); solubility ([1]; Phosphate buffer with a pH of 6.8, 37° C., 48 h): 30 µg/mL (≈ 60 µM); solubility ([1]; Phosphate buffer with a pH of 6.8, 37° C., 72 h): 30 µg/mL (≈ 60 µM); solubility ([1]; Water, 37° C., 24 h): 720 µg/mL (≈ 1440 µM); solubility ([1]; Water, 37° C., 48 h): 520 µg/mL (≈ 1040 µM); solubility ([1]; Water, 37° C., 72 h): 520 µg/mL (≈ 1040 µM) |
| CC(C)(C(=O)O)c1ccc(C(=O)CCCN2CCC(OC(c3ccccc3)c3ccccc3)CC2)cc1.CS(=O)(=O)O [Example 4, 2-(4-(4-(4-(diphenylmethoxy)piperidin-1-yl)butyryl)phenyl)-2-methylpropanoic acid methanesulfonate] | 0/10 | >600*^▴ s |  |  |  |  |  |  | 256 ± 24.05 s |  |
| CC(C)(C(=O)O)c1ccc(C(=O)CCCN2CCC(OC(c3ccccc3)c3ccccc3)CC2)cc1.Cc1ccc(S(=O)(=O)O)cc1 [Example 5, carebastine p-toluenesulfonate] |  |  | 97.90% | 97.80% | 97.90% | 97.89% |  |  |  |  |
| CC(C)(C(=O)[O-])c1ccc(C(=O)CCCN2CCC(OC(c3ccccc3)c3ccccc3)CC2)cc1.[Na+] [Example 2, sodium 2-(4-(4-(4-(diphenylmethoxy)piperidin-1-yl)butyryl)phenyl)-2-methylpropanoate] | 0/10 | >600*^▴ s |  |  |  |  |  |  | 275 ± 31.41 s |  |
